Measured values published in patent publication US20120122860A1, “SOLID FORMS OF SULFONAMIDES AND AMINO ACIDS” (Plexxikon, Inc., priority 2009, published 2012).

What was measured:
Kdr = Kdr (Homo sapiens, UniProt P35968); experiment: Kinase activity assay, Kdr
B-Raf = B-Raf (Homo sapiens, UniProt P15056); experiment: Kinase activity assay, B-Raf; assay type: biochemical; settings: read-out: activity toward kinase B-Raf, IC50
C-Raf = C-Raf (Homo sapiens, UniProt P04049); experiment: Kinase activity assay, C-Raf
B-Raf V600E = B-Raf V600E (Homo sapiens, UniProt P15056, V600E); experiment: Kinase activity assay, B-Raf V600E; assay type: biochemical; settings: read-out: activity toward kinase B-Raf V600E, IC50
Kit = Kit (Homo sapiens, UniProt P10721); experiment: Kinase activity assay, Kit
Src = Src (Homo sapiens, UniProt P12931); experiment: Kinase activity assay, Src

Measured: IC50

Kdr, sequence (P35968 20-1356): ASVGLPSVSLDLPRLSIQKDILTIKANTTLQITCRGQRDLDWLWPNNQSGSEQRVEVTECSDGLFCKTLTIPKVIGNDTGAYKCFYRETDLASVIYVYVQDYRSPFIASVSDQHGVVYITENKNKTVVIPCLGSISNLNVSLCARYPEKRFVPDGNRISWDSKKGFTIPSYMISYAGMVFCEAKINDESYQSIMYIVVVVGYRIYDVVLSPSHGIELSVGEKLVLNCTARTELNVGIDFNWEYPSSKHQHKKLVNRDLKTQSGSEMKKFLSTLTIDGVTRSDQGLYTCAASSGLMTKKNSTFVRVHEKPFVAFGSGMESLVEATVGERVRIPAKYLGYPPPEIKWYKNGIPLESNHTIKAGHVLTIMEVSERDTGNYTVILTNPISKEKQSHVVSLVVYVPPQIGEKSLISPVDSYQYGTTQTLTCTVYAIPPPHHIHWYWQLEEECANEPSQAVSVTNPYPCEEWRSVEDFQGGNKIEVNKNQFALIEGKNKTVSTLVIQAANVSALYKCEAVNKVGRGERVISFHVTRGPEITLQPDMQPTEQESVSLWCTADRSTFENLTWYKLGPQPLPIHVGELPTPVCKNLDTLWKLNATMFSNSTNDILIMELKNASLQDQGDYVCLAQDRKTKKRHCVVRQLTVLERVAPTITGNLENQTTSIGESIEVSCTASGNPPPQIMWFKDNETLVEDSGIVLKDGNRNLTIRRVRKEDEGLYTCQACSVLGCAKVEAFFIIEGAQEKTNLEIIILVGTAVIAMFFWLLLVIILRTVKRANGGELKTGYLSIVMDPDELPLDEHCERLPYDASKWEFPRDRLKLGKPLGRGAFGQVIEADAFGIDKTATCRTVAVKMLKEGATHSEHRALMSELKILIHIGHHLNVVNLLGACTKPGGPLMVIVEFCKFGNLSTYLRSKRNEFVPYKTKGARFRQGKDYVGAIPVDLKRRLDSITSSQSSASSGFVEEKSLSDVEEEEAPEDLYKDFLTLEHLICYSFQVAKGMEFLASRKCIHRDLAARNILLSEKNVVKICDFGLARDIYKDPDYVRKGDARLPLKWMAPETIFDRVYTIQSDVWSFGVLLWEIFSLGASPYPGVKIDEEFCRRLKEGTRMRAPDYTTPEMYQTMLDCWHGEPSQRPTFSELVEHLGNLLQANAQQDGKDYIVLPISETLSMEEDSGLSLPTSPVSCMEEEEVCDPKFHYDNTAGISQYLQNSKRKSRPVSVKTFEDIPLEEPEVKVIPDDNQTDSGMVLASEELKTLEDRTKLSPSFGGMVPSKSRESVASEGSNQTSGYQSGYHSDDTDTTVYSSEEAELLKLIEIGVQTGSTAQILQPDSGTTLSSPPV
C-Raf, sequence (P04049 whole entry): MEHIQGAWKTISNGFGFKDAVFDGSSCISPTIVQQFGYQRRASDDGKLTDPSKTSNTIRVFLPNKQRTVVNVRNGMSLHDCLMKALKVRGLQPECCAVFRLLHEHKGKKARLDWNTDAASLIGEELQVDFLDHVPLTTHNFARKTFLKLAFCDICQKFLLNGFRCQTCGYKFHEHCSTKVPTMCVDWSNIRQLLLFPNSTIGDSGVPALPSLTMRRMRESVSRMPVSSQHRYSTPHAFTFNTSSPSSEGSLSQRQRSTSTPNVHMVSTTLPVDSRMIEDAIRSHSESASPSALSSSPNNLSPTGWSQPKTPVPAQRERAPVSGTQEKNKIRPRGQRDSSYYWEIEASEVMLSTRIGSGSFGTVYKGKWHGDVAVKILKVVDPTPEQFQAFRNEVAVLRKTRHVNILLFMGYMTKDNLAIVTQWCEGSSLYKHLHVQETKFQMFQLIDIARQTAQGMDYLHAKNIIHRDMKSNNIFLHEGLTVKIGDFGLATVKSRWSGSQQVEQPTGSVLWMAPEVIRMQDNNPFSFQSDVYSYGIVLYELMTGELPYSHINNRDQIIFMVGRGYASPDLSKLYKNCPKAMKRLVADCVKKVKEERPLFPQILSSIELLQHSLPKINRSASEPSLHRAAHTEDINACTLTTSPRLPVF
B-Raf, sequence (P15056 whole entry): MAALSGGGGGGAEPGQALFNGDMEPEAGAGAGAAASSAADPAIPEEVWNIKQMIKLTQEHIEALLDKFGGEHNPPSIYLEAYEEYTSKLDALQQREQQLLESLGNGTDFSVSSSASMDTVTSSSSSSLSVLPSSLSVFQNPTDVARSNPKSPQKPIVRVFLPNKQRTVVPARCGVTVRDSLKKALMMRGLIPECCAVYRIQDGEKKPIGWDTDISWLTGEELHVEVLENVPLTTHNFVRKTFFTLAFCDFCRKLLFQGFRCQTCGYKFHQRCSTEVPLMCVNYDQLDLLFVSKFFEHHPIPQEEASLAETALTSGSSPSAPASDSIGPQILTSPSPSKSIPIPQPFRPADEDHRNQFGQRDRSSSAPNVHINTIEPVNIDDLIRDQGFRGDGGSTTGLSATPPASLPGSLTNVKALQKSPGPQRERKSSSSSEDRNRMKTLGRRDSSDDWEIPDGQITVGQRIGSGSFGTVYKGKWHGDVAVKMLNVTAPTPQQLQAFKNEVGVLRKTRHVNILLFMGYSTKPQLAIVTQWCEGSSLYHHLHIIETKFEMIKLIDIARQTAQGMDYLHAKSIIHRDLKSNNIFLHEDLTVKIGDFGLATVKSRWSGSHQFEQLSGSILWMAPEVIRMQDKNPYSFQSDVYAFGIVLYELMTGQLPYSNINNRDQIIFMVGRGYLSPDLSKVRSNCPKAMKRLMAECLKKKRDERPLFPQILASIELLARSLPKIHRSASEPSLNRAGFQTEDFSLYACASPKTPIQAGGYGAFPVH
Src, sequence (P12931 whole entry): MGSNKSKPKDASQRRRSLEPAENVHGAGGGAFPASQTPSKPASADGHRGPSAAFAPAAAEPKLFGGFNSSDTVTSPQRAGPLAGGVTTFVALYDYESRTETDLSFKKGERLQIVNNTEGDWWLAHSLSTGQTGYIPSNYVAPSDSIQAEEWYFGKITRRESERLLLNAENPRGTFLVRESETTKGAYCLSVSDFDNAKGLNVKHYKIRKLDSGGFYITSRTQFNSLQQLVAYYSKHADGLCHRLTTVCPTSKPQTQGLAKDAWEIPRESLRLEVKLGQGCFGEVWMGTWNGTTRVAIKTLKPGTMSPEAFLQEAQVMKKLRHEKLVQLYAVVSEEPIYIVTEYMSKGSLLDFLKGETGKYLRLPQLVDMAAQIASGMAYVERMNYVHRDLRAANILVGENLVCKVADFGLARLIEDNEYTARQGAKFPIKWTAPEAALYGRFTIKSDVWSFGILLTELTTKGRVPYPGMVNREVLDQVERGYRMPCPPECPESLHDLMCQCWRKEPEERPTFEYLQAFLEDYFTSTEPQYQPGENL
Kit, sequence (P10721 26-976): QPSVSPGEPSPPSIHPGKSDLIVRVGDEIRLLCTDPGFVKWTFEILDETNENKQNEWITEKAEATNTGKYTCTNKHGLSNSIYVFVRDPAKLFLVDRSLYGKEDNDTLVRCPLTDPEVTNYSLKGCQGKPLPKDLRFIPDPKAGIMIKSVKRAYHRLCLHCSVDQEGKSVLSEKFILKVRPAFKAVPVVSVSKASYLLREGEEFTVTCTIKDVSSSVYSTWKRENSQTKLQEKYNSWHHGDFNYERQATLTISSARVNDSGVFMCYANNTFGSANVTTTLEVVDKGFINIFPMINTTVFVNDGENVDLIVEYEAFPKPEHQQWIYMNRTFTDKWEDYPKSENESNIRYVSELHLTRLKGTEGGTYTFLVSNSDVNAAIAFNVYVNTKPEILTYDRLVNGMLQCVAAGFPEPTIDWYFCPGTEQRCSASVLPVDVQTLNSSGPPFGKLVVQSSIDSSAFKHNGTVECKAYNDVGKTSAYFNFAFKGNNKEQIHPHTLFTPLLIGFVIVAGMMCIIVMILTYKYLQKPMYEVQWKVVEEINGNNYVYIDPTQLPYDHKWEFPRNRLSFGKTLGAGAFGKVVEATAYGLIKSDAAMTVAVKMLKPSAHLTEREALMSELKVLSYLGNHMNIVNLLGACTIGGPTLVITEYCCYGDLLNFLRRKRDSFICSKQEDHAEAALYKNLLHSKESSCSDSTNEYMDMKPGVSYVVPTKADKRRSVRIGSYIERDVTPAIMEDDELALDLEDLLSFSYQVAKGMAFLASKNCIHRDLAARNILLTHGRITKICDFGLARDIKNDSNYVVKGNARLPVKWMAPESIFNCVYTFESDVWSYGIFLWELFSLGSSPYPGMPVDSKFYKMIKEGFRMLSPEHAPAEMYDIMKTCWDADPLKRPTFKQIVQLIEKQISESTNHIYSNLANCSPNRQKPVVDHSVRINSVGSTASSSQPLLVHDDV
B-Raf V600E, sequence (P15056 whole entry V600E): as the sequence (P15056 whole entry) above, with V600E counted along it

O=C(c1cccc(NS(=O)(=O)c2ccc(C(F)(F)F)cc2)c1F)c1c[nH]c2ncc(Cl)cc12 [P-2058, N-[3-(5-Chloro-1H-pyrrolo[2,3-b]pyridine-3-carbonyl)-2-fluoro-phenyl]-4-trifluoromethyl-benzenesulfonamide]
not listed: Src
≤ 10 µM: all other assays above

Cc1cnc2[nH]cc(C(=O)c3cccc(NS(=O)(=O)c4ccc(C(F)(F)F)cc4)c3F)c2c1 [P-2059, N-[2-Fluoro-3-(5-methyl-1H-pyrrolo[2,3-b]pyridine-3-carbonyl)-phenyl]-4-trifluoromethyl-benzenesulfonamide]
not listed: Kit
≤ 10 µM: all other assays above

COc1ccnc2[nH]cc(C(=O)c3c(F)ccc(NS(=O)(=O)c4cccnc4)c3F)c12 [P-2073, Pyridine-3-sulfonic acid [2,4-difluoro-3-(4-methoxy-1H-pyrrolo[2,3-b]pyridine-3-carbonyl)-phenyl]-amide]
≤ 10 µM: Src | B-Raf | C-Raf | B-Raf V600E

N#Cc1cnc2[nH]cc(C(=O)c3c(F)ccc(NS(=O)(=O)Cc4cccnc4)c3F)c2c1 [P-2094, N-[3-(5-Cyano-1H-pyrrolo[2,3-b]pyridine-3-carbonyl)-2,4-difluoro-phenyl]-C-pyridin-3-yl-methanesulfonamide]
≤ 10 µM: Kdr | B-Raf V600E | Kit

O=C(c1cc(NS(=O)(=O)c2ccc(OC(F)(F)F)cc2)ccc1F)c1c[nH]c2ncc(Cl)cc12 [P-2109, N-[3-(5-Chloro-1H-pyrrolo[2,3-b]pyridine-3-carbonyl)-4-fluoro-phenyl]-4-trifluoromethoxy-benzenesulfonamide]
≤ 10 µM: Kdr | B-Raf | Kit

O=C(c1cccc(NS(=O)(=O)c2ccc(C(F)(F)F)cc2)c1)c1c[nH]c2ncc(Cl)cc12 [P-2126, N-[3-(5-Chloro-1H-pyrrolo[2,3-b]pyridine-3-carbonyl)-phenyl]-4-trifluoromethyl-benzenesulfonamide]
≤ 10 µM: Kdr | B-Raf | Kit

CCCS(=O)(=O)Nc1ccc(F)c(C(=O)c2c[nH]c3ncc(-c4ccc(Cl)nc4)cc23)c1F [P-2154, Propane-1-sulfonic acid {3-[5-(6-chloro-pyridin-3-yl)-1H-pyrrolo[2,3-b]pyridine-3-carbonyl]-2,4-difluoro-phenyl}-amide]
not listed: Kit
≤ 10 µM: all other assays above

CCCS(=O)(=O)Nc1ccc(F)c(C(=O)c2c[nH]c3ncc(-c4c(C)noc4C)cc23)c1F [P-2156, Propane-1-sulfonic acid {3-[5-(3,5-dimethyl-isoxazol-4-yl)-1H-pyrrolo[2,3-b]pyridine-3-carbonyl]-2,4-difluoro-phenyl}-amide]
≤ 10 µM: Src | Kdr | B-Raf V600E

CCCS(=O)(=O)Nc1ccc(F)c(C(=O)c2c[nH]c3ncc(-c4ccc(Cl)c(C(F)(F)F)c4)cc23)c1F [P-2171, Propane-1-sulfonic acid {3-[5-(4-chloro-3-trifluoromethyl-phenyl)-1H-pyrrolo[2,3-b]pyridine-3-carbonyl]-2,4-difluoro-phenyl}-amide]
≤ 10 µM: Src | Kdr | B-Raf | B-Raf V600E

CCCS(=O)(=O)Nc1ccc(F)c(C(=O)c2c[nH]c3ncc(-c4c(-c5ccccc5)noc4C)cc23)c1F [P-2191, Propane-1-sulfonic acid {2,4-difluoro-3-[5-(5-methyl-3-phenyl-isoxazol-4-yl)-1H-pyrrolo[2,3-b]pyridine-3-carbonyl]-phenyl}-amide]
≤ 10 µM: Src | Kdr | B-Raf | B-Raf V600E

CCCS(=O)(=O)Nc1ccc(F)c(C(=O)c2c[nH]c3ncc(/C=C/C(=O)OC)cc23)c1F [P-2225, (E)-3-{3-[2,6-Difluoro-3-(propane-1-sulfonylamino)-benzoyl]-1H-pyrrolo[2,3-b]pyridin-5-yl}-acrylic acid methyl ester]
not listed: Kit
≤ 10 µM: all other assays above

CCCS(=O)(=O)Nc1ccc(F)c(C(=O)c2c[nH]c3ncc(-c4ccc(S(=O)(=O)N5CCCC5)cc4)cc23)c1F [P-2227, Propane-1-sulfonic acid (2,4-difluoro-3-{5-[4-(pyrrolidine-1-sulfonyl)-phenyl]-1H-pyrrolo[2,3-b]pyridine-3-carbonyl}-phenyl)-amide]
≤ 10 µM: Kdr | B-Raf | C-Raf | B-Raf V600E

CCCS(=O)(=O)Nc1ccc(F)c(C(=O)c2c[nH]c3ncc(C(=O)N(C)C)cc23)c1F [P-2237, 3-[2,6-Difluoro-3-(propane-1-sulfonylamino)-benzoyl]-1H-pyrrolo[2,3-b]pyridine-5-carboxylic acid dimethyl amide]
≤ 10 µM: Src | Kdr | B-Raf

COc1ccnc2[nH]cc(C(=O)c3c(F)ccc(NS(=O)(=O)C(C)C)c3F)c12 [P-2280, Propane-2-sulfonic acid [2,4-difluoro-3-(4-methoxy-1H-pyrrolo[2,3-b]pyridine-3-carbonyl)-phenyl]-amide]
not listed: Kit
≤ 10 µM: all other assays above

CCS(=O)(=O)Nc1ccc(F)c(C(=O)c2c[nH]c3ncc(C#N)cc23)c1F [P-2281, Ethanesulfonic acid [3-(5-cyano-1H-pyrrolo[2,3-b]pyridine-3-carbonyl)-2,4-difluoro-phenyl]-amide]
≤ 10 µM: Kdr | B-Raf | C-Raf | B-Raf V600E

COc1ccnc2[nH]cc(C(=O)c3c(F)ccc(NS(C)(=O)=O)c3F)c12 [P-2293, N-[2,4-Difluoro-3-(4-methoxy-1H-pyrrolo[2,3-b]pyridine-3-carbonyl)-phenyl]-methanesulfonamide]
≤ 10 µM: Kdr | C-Raf | B-Raf V600E | Kit

COc1ccnc2[nH]cc(C(=O)c3c(F)ccc(NS(=O)(=O)CC(F)(F)F)c3F)c12 [P-2340, 2,2,2-Trifluoro-ethanesulfonic acid [2,4-difluoro-3-(4-methoxy-1H-pyrrolo[2,3-b]pyridine-3-carbonyl)-phenyl]-amide]
≤ 10 µM: Src | B-Raf | C-Raf | B-Raf V600E

CCCS(=O)(=O)Nc1cccc(C(=O)c2c[nH]c3ncc(C)cc23)c1F [P-2403, Propane-1-sulfonic acid [2-fluoro-3-(5-methyl-1H-pyrrolo[2,3-b]pyridine-3-carbonyl)-phenyl]-amide]
≤ 10 µM: Kdr | B-Raf | C-Raf | B-Raf V600E

CCCS(=O)(=O)Nc1cccc(C(=O)c2c[nH]c3nccc(C#N)c23)c1F [P-2409, Propane-1-sulfonic acid [3-(4-cyano-1H-pyrrolo[2,3-b]pyridine-3-carbonyl)-2-fluoro-phenyl]-amide]
≤ 10 µM: Kdr | B-Raf | C-Raf | B-Raf V600E

CCC(C)S(=O)(=O)Nc1cccc(C(=O)c2c[nH]c3ncc(C#N)cc23)c1F (centres unmarked) [P-2413, Butane-2-sulfonic acid [3-(5-cyano-1H-pyrrolo[2,3-b]pyridine-3-carbonyl)-2-fluoro-phenyl]-amide]
≤ 10 µM: B-Raf | C-Raf | B-Raf V600E

N#Cc1cnc2[nH]cc(C(=O)c3cccc(NS(=O)(=O)CCC(F)(F)F)c3F)c2c1 [P-2415, 3,3,3-Trifluoro-propane-1-sulfonic acid [3-(5-cyano-1H-pyrrolo[2,3-b]pyridine-3-carbonyl)-2-fluoro-phenyl]-amide]
≤ 10 µM: B-Raf | C-Raf | B-Raf V600E

N#Cc1cnc2[nH]cc(C(=O)c3cccc(NS(=O)(=O)C4CCCCC4)c3F)c2c1 [P-2416, Cyclohexanesulfonic acid [3-(5-cyano-1H-pyrrolo[2,3-b]pyridine-3-carbonyl)-2-fluoro-phenyl]-amide]
≤ 10 µM: B-Raf | C-Raf | B-Raf V600E

N#Cc1cnc2[nH]cc(C(=O)c3cccc(NS(=O)(=O)C4CCC4)c3F)c2c1 [P-2418, Cyclobutanesulfonic acid [3-(5-cyano-1H-pyrrolo[2,3-b]pyridine-3-carbonyl)-2-fluoro-phenyl]-amide]
≤ 10 µM: B-Raf | C-Raf | B-Raf V600E

CN(C)S(=O)(=O)Nc1cccc(C(=O)c2c[nH]c3ncc(C#N)cc23)c1F [P-2419, N,N-dimethylamino-sulfonic acid [3-(5-cyano-1H-pyrrolo[2,3-b]pyridine-3-carbonyl)-2-fluoro-phenyl]-amide]
≤ 10 µM: B-Raf V600E | Kit

COc1ncc(-c2cnc3[nH]cc(C(=O)c4cccc(NS(=O)(=O)N5CCCC5)c4F)c3c2)cn1 [P-2422, Pyrrolidine-1-sulfonic acid {2-fluoro-3-[5-(2-methoxy-pyrimidin-5-yl)-1H-pyrrolo[2,3-b]pyridine-3-carbonyl]-phenyl}-amide]
≤ 10 µM: Kdr | B-Raf | C-Raf | B-Raf V600E

O=C(c1c(F)ccc(NS(=O)(=O)c2ccc(C(F)(F)F)nc2)c1F)c1c[nH]c2ncc(Cl)cc12 [P-2481, 6-Trifluoromethyl-pyridine-3-sulfonic acid [3-(5-chloro-1H-pyrrolo[2,3-b]pyridine-3-carbonyl)-2,4-difluoro-phenyl]-amide]
≤ 10 µM: Src | Kdr | B-Raf | C-Raf
